From US8513227B2, “Inhibition of inflammatory cytokine production with tanshinones” (The Feinstein Institute for Medical Research, priority 2006, dated 2013)

What was measured:
[1] = test system: HMGB1; assay: Endotoxin-induced HMGB1 cytoplasmic translocation (immunocytochemistry, cell fractionation/western blot); format: cell-based, murine
Experimental: Immunocytochemistry and cell fractionation/western blot. At 16 h after LPS stimulation, cellular HMGB1 was immunostained with anti-HMGB1 polyclonal antibodies, and images were acquired using fluorescent microscope (Carl Zeiss Microimaging, Inc., Thomwood, N.Y.) as previously described (Chen et al. 2004; Rendon-Mitchell et al. 2003). Alternatively, localization of HMGB1 was examined by a cell fractionation/western blotting technique as previously described (Tang et al. 2006). Cell fractionation is based on differential lysis of plasma and nuclear membranes by nonionic detergent (NP-40). Briefly, after selective lysis of the plasma membrane in low salt buffer (10 mM HEPES, pH 7.9; 10 mM KCl; 0.1 mM EDTA; 0.1 mM EGTA; 1 mM DTT; 0.5 mM PMSF, 1% NP-40), the intact nuclei was collected by a quick centrifugation step (7,000 g, 1 min, 4° C.), leaving the cytoplasmic fraction in the supernatant. The nuclei pellet was resuspended in NP-40 high salt buffer (20 mM HEPES, pH 7.9; 0.4 M NaCl; 1 mM EDTA; 1 mM EGTA; 1 mM DTT; 1 mM PMSF, 1% NP-40), and briefly sonicated to generate the nuclear fraction. After fractionation, the protein content of different fractions was determined by the Bradford method, and each fraction was assayed for levels of various protein by western blotting analysis using primary antibodies specific for HMGB1, a cytoplasmic protein (βactin, Santa Cruz Biotechnology), and a nuclear protein (PCNA, BD Biosciences).

[2] = test system: HMGB1; assay: LPS-induced HMGB1 release in RAW 264.7 macrophage cultures (western blot); format: cell-based, murine
Excerpt: Cell culture. […] Rendon-Mitchell et al. 2003). Murine macrophages were pre-cultured in RPMI 1640 medium (Gibco BRL, Grand Island, N.Y.) supplemented with 10% fetal bovine serum (FBS) and 2 mmol/L glutamine. Human peripheral blood mononuclear cells (HuPBMCs) were isolated from the blood of healthy donors (Long Island Blood Bank, Melville, N.Y.) by density gradient centrifugation through Ficoll (Ficoll-Paque PLUS, Pharmacia, Piscataway, N.J.), and cultured in RPMI 1640 supplemented with 10% heat-inactivated human serum/0.2 mM L-glutamine as previously described (Rendon-Mitchell et al. 2003). LPS stimulation. Adherent macrophages or monocytes were gently washed with, and cultured in, serum-free OPTI-MEM I medium two hours before stimulation with bacterial endotoxin (lipopolysaccharide, LPS, E. coli 0111:B4, Sigma-Aldrich). […] Rendon-Mitchell et al. 2003; Wang et al. 1999). HMGB1 western blotting analysis. The levels of HMGB1 in the culture medium or serum were determined by western blotting analysis as previously described (Chen et al. 2004; Rendon-Mitchell et al. 2003; Wang et al. 1999). The relative band intensity was quantified using NIH image 1.59 software to determine HMGB1 levels with reference to standard curves generated with purified HMGB1.

[3] = test system: HMGB1; assay: LPS-induced HMGB1 release in primary human peripheral blood mononuclear cells; format: cell-based; conditions: FIG. 2B
Experimental: Cell culture. Murine macrophage-like RAW 264.7 cells were obtained from the American Type Culture Collection (ATCC, Rockville, Md.), and primary peritoneal macrophages were isolated from Balb/C mice (male, 7-8 weeks, 20-25 grams) at 2-3 days after intraperitoneal injection of 2 ml thioglycollate broth (4%) as previously described (Chen et al. 2004; Rendon-Mitchell et al. 2003). Murine macrophages were pre-cultured in RPMI 1640 medium (Gibco BRL, Grand Island, N.Y.) supplemented with 10% fetal bovine serum (FBS) and 2 mmol/L glutamine. […]
LPS stimulation. […] At 16 hours after LPS stimulation, levels of HMGB1 in the culture medium were determined as previously described (Chen et al. 2004; Rendon-Mitchell et al. 2003; Wang et al. 1999).
(§1) HMGB1 western blotting analysis. The levels of HMGB1 in the culture medium or serum were determined by western blotting analysis as previously described (Chen et al. 2004; Rendon-Mitchell et al. 2003; Wang et al. 1999). The relative band intensity was quantified using NIH image 1.59 software to determine HMGB1 levels with reference to standard curves generated with purified HMGB1.

[4] = test system: lethal endotoxemia; assay: Lethal endotoxemia in Balb/C mice (LPS 15 mg/kg i.p.); format: in vivo
Experimental: Animal models of endotoxemia and sepsis. This study was approved and performed in accordance with the guidelines for the care and use of laboratory animals at the Feinstein Institute for Medical Research, Manhasset, N.Y. Endotoxemia was induced in Balb/C mice (male, 7-8 weeks) by intraperitoneal injection of bacterial endotoxin (LPS, 15 mg/kg) as previously described (Chen et al. 2005; Wang et al. 1999; Wang et al. 2006). Sepsis was induced in male Balb/C mice (7-8 weeks, 20-25 g) or Sprague-Dawley rats (290-310 g) by cecal ligation and puncture (CLP) as previously described (Wang et al. 2006; Yang et al. 2002b). Herbal components were administered intraperitoneally into mice at indicated doses and time points, and mice were monitored for survival for up to two weeks. In parallel experiments, mice were euthanized to collect blood at 28 h (following two doses of herbal components at −0.5 and +24 h) after endotoxemia, and at 52 h (following two doses of herbal components at +24 and +48 h) after CLP.
as §1

Cc1c(S(=O)(=O)[O-])oc2c1C(=O)C(=O)c1c-2ccc2c1CCCC2(C)C.[Na+] [TSNIIA-SS, tanshinone IIA sodium sulfonate]
levels of HMGB1 in the cytoplasmic fractions after LPS ([1]; cell fractionation/western blot, FIG. 4B): dramatically reduced | effect on LPS-induced HMGB1 cytoplasmic translocation ([1]; immunostaining 16 h post LPS, 100 μM, FIG. 4A): almost completely abrogated | effect on nuclear localization of HMGB1 in resting cells ([1]; resting cells, data not shown): did not affect | effect on LPS-induced HMGB1 release ([2]; 100 μM): completely abrogated | IC50 ([2]; RAW 264.7 cells, 16 h after LPS, western blot, estimated, read-out: estimated IC50 for LPS-induced HMGB1 release): < 5 µM | inhibition of HMGB1 release on delayed addition ([2]; added 2 to 6 h after LPS, 25 or 50 μM, HMGB1 at 16 h): significant inhibition was retained | effect on LPS-induced HMGB1 release [3]: effectively inhibited | circulating HMGB1 levels, endotoxemia ([4]; LPS+vehicle 140±20 ng/ml, n=10, p<0.01): 40 ± 25 ng/mL | animal survival, lethal endotoxemia ([4]; repeated doses (+0.5, +24, +48, 72 hr), dose-dependent, control 20%, FIG. 6A): 80% | animal survival rate, lethal endotoxemia ([4]; single dose 15 mg/kg 30 minutes after LPS, saline control 25%, P>0.05): 37.5%
